Like-named read-outs stand apart in the source and are kept apart here.
Tested on: patients with HCV and HBV liver cirrhosis
Assay type: in vivo, human
[1] = Phase 1 140 mg/m^2/4h (n = 3), Grade 1-2
[2] = Phase 1 140 mg/m^2/4h (n = 3), Grade 3
[3] = Phase 1 280 mg/m^2/4h (n = 6), Grade 1-2
[4] = Phase 1 280 mg/m^2/4h (n = 6), Grade 3
[5] = Phase 1 380 mg/m^2/4h (n = 6), Grade 1-2
[6] = Phase 1 380 mg/m^2/4h (n = 6), Grade 3
[7] = Phase 2a 280 mg/m^2/4h, Phase 1/ 2a (n = 3), Grade 1-2
[8] = Phase 2a 280 mg/m^2/4h, Phase 1/ 2a (n = 3), Grade 3
[9] = Phase 2a 280 mg/m^2/4h, Phase 2a only (n = 12), Grade 1-2
[10] = Phase 2a 280 mg/m^2/4h, Phase 2a only (n = 12), Grade 3

PRI-724
Liver dysfunction at the recommended dose (Level 2, 280 mg/m^2/4 h): minor and transient | AE: Anaemia [1]: 0 | AE: Ascites [1]: 0 | AE: Decreased appetite [1]: 0 | AE: Diarrhea [1]: 0 | AE: Dyspepsia [1]: 0 | AE: Erythema [1]: 0 | AE: Headache [1]: 0 | AE: Hepatic function abnormal [1]: 1 (33%) | AE: Hypertension [1]: 0 | AE: Hyperuricaemia [1]: 0 | AE: Insomnia [1]: 0 | AE: Muscle spasms [1]: 0 | AE: Nasopharyngitis [1]: 1 (33%) | AE: Nausea [1]: 0 | AE: Pruritus [1]: 0 | AE: Puncture site pain [1]: 0 | AE: Pyrexia [1]: 0 | AE: Spontaneous bacterial peritonitis [1]: 0 | AE: Viral infection [1]: 0 | AE: Vomiting [1]: 0 | Laboratory abnormality: Alanine aminotransferase increased [1]: 0 | Laboratory abnormality: Aspartate aminotransferase increased [1]: 0 | Laboratory abnormality: Blood creatine phosphokinase increased [1]: 0 | Laboratory abnormality: Blood creatinine increased [1]: 0 | Laboratory abnormality: C-reactive protein increased [1]: 0 | SAE: Anaemia [1]: 0 | SAE: Hepatic function abnormal [1]: 0 | SAE: Spontaneous bacterial peritonitis [1]: 0 | SAE: Viral infection [1]: 0 | AE: Anaemia [2]: 0 | AE: Ascites [2]: 0 | AE: Decreased appetite [2]: 0 | AE: Diarrhea [2]: 0 | AE: Dyspepsia [2]: 0 | AE: Erythema [2]: 0 | AE: Headache [2]: 0 | AE: Hepatic function abnormal [2]: 0 | AE: Hypertension [2]: 0 | AE: Hyperuricaemia [2]: 0 | AE: Insomnia [2]: 0 | AE: Muscle spasms [2]: 0 | AE: Nasopharyngitis [2]: 0 | AE: Nausea [2]: 0 | AE: Pruritus [2]: 0 | AE: Puncture site pain [2]: 0 | AE: Pyrexia [2]: 0 | AE: Spontaneous bacterial peritonitis [2]: 0 | AE: Viral infection [2]: 0 | AE: Vomiting [2]: 0 | Laboratory abnormality: Alanine aminotransferase increased [2]: 0 | Laboratory abnormality: Aspartate aminotransferase increased [2]: 0 | Laboratory abnormality: Blood creatine phosphokinase increased [2]: 0 | Laboratory abnormality: Blood creatinine increased [2]: 0 | Laboratory abnormality: C-reactive protein increased [2]: 0 | SAE: Anaemia [2]: 0 | SAE: Hepatic function abnormal [2]: 0 | SAE: Spontaneous bacterial peritonitis [2]: 0 | SAE: Viral infection [2]: 0 | AE: Anaemia [3]: 0 | AE: Ascites [3]: 1 (17%) | AE: Decreased appetite [3]: 2 (33%) | AE: Diarrhea [3]: 1 (17%) | AE: Dyspepsia [3]: 1 (17%) | AE: Erythema [3]: 0 | AE: Headache [3]: 1 (17%) | AE: Hepatic function abnormal [3]: 1 (17%) | AE: Hypertension [3]: 1 (17%) | AE: Hyperuricaemia [3]: 0 | AE: Insomnia [3]: 1 (17%) | AE: Muscle spasms [3]: 2 (33%) | AE: Nasopharyngitis [3]: 1 (17%) | AE: Nausea [3]: 2 (33%) | AE: Pruritus [3]: 1 (17%) | AE: Puncture site pain [3]: 1 (17%) | AE: Pyrexia [3]: 0 | AE: Spontaneous bacterial peritonitis [3]: 0 | AE: Viral infection [3]: 0 | AE: Vomiting [3]: 2 (33%) | Laboratory abnormality: Alanine aminotransferase increased [3]: 0 | Laboratory abnormality: Aspartate aminotransferase increased [3]: 0 | Laboratory abnormality: Blood creatine phosphokinase increased [3]: 0 | Laboratory abnormality: Blood creatinine increased [3]: 0 | Laboratory abnormality: C-reactive protein increased [3]: 0 | SAE: Anaemia [3]: 0 | SAE: Hepatic function abnormal [3]: 0 | SAE: Spontaneous bacterial peritonitis [3]: 0 | SAE: Viral infection [3]: 0 | AE: Anaemia [4]: 0 | AE: Ascites [4]: 0 | AE: Decreased appetite [4]: 0 | AE: Diarrhea [4]: 1 (17%) | AE: Dyspepsia [4]: 0 | AE: Erythema [4]: 0 | AE: Headache [4]: 0 | AE: Hepatic function abnormal [4]: 0 | AE: Hypertension [4]: 0 | AE: Hyperuricaemia [4]: 0 | AE: Insomnia [4]: 0 | AE: Muscle spasms [4]: 0 | AE: Nasopharyngitis [4]: 0 | AE: Nausea [4]: 0 | AE: Pruritus [4]: 0 | AE: Puncture site pain [4]: 0 | AE: Pyrexia [4]: 0 | AE: Spontaneous bacterial peritonitis [4]: 0 | AE: Viral infection [4]: 0 | AE: Vomiting [4]: 0 | Laboratory abnormality: Alanine aminotransferase increased [4]: 1 (17%) | Laboratory abnormality: Aspartate aminotransferase increased [4]: 1 (17%) | Laboratory abnormality: Blood creatine phosphokinase increased [4]: 0 | Laboratory abnormality: Blood creatinine increased [4]: 0 | Laboratory abnormality: C-reactive protein increased [4]: 0 | SAE: Anaemia [4]: 0 | SAE: Hepatic function abnormal [4]: 0 | SAE: Spontaneous bacterial peritonitis [4]: 0 | SAE: Viral infection [4]: 0 | AE: Anaemia [5]: 0 | AE: Ascites [5]: 1 (17%) | AE: Decreased appetite [5]: 1 (17%) | AE: Diarrhea [5]: 2 (33%) | AE: Dyspepsia [5]: 0 | AE: Erythema [5]: 0 | AE: Headache [5]: 1 (17%) | AE: Hepatic function abnormal [5]: 0 | AE: Hypertension [5]: 0 | AE: Hyperuricaemia [5]: 0 | AE: Insomnia [5]: 1 (17%) | AE: Muscle spasms [5]: 0 | AE: Nasopharyngitis [5]: 0 | AE: Nausea [5]: 2 (33%) | AE: Pruritus [5]: 0 | AE: Puncture site pain [5]: 0 | AE: Pyrexia [5]: 2 (33%) | AE: Spontaneous bacterial peritonitis [5]: 0 | AE: Viral infection [5]: 0 | AE: Vomiting [5]: 1 (17%) | Laboratory abnormality: Alanine aminotransferase increased [5]: 0 | Laboratory abnormality: Aspartate aminotransferase increased [5]: 1 (17%) | Laboratory abnormality: Blood creatine phosphokinase increased [5]: 1 (17%) | Laboratory abnormality: Blood creatinine increased [5]: 0 | Laboratory abnormality: C-reactive protein increased [5]: 1 (17%) | SAE: Anaemia [5]: 0 | SAE: Hepatic function abnormal [5]: 0 | SAE: Spontaneous bacterial peritonitis [5]: 0 | SAE: Viral infection [5]: 0 | AE: Anaemia [6]: 0 | AE: Ascites [6]: 0 | AE: Decreased appetite [6]: 0 | AE: Diarrhea [6]: 0 | AE: Dyspepsia [6]: 0 | AE: Erythema [6]: 0 | AE: Headache [6]: 0 | AE: Hepatic function abnormal [6]: 1 (17%) | AE: Hypertension [6]: 0 | AE: Hyperuricaemia [6]: 0 | AE: Insomnia [6]: 0 | AE: Muscle spasms [6]: 0 | AE: Nasopharyngitis [6]: 0 | AE: Nausea [6]: 0 | AE: Pruritus [6]: 0 | AE: Puncture site pain [6]: 0 | AE: Pyrexia [6]: 0 | AE: Spontaneous bacterial peritonitis [6]: 0 | AE: Viral infection [6]: 1 (17%) | AE: Vomiting [6]: 0 | Laboratory abnormality: Alanine aminotransferase increased [6]: 0 | Laboratory abnormality: Aspartate aminotransferase increased [6]: 0 | Laboratory abnormality: Blood creatine phosphokinase increased [6]: 0 | Laboratory abnormality: Blood creatinine increased [6]: 0 | Laboratory abnormality: C-reactive protein increased [6]: 0 | SAE: Anaemia [6]: 0 | SAE: Hepatic function abnormal [6]: 1 (17%) | SAE: Spontaneous bacterial peritonitis [6]: 0 | SAE: Viral infection [6]: 1 (17%) | Serious adverse events (SAEs) observed (Phase 1/2a, 27 patients): four SAEs among three (one from phase 1 and two from phase 2a) of the 27 patients | AE: Anaemia [7]: 0 | AE: Ascites [7]: 0 | AE: Decreased appetite [7]: 1 (33%) | AE: Diarrhea [7]: 1 (33%) | AE: Dyspepsia [7]: 0 | AE: Erythema [7]: 0 | AE: Headache [7]: 0 | AE: Hepatic function abnormal [7]: 0 | AE: Hypertension [7]: 1 (33%) | AE: Hyperuricaemia [7]: 0 | AE: Insomnia [7]: 1 (33%) | AE: Muscle spasms [7]: 0 | AE: Nasopharyngitis [7]: 0 | AE: Nausea [7]: 1 (33%) | AE: Pruritus [7]: 0 | AE: Puncture site pain [7]: 1 (33%) | AE: Pyrexia [7]: 0 | AE: Spontaneous bacterial peritonitis [7]: 0 | AE: Viral infection [7]: 0 | AE: Vomiting [7]: 1 (33%) | Laboratory abnormality: Alanine aminotransferase increased [7]: 0 | Laboratory abnormality: Aspartate aminotransferase increased [7]: 0 | Laboratory abnormality: Blood creatine phosphokinase increased [7]: 0 | Laboratory abnormality: Blood creatinine increased [7]: 0 | Laboratory abnormality: C-reactive protein increased [7]: 0 | SAE: Anaemia [7]: 0 | SAE: Hepatic function abnormal [7]: 0 | SAE: Spontaneous bacterial peritonitis [7]: 0 | SAE: Viral infection [7]: 0 | AE: Anaemia [8]: 0 | AE: Ascites [8]: 0 | AE: Decreased appetite [8]: 0 | AE: Diarrhea [8]: 0 | AE: Dyspepsia [8]: 0 | AE: Erythema [8]: 0 | AE: Headache [8]: 0 | AE: Hepatic function abnormal [8]: 0 | AE: Hypertension [8]: 0 | AE: Hyperuricaemia [8]: 0 | AE: Insomnia [8]: 0 | AE: Muscle spasms [8]: 0 | AE: Nasopharyngitis [8]: 0 | AE: Nausea [8]: 0 | AE: Pruritus [8]: 0 | AE: Puncture site pain [8]: 0 | AE: Pyrexia [8]: 0 | AE: Spontaneous bacterial peritonitis [8]: 0 | AE: Viral infection [8]: 0 | AE: Vomiting [8]: 0 | Laboratory abnormality: Alanine aminotransferase increased [8]: 0 | Laboratory abnormality: Aspartate aminotransferase increased [8]: 0 | Laboratory abnormality: Blood creatine phosphokinase increased [8]: 0 | Laboratory abnormality: Blood creatinine increased [8]: 0 | Laboratory abnormality: C-reactive protein increased [8]: 0 | SAE: Anaemia [8]: 0 | SAE: Hepatic function abnormal [8]: 0 | SAE: Spontaneous bacterial peritonitis [8]: 0 | SAE: Viral infection [8]: 0 | AE: Anaemia [9]: 0 | AE: Ascites [9]: 0 | AE: Decreased appetite [9]: 3 (25%) | AE: Diarrhea [9]: 2 (17%) | AE: Dyspepsia [9]: 0 | AE: Erythema [9]: 2 (17%) | AE: Headache [9]: 1 (8%) | AE: Hepatic function abnormal [9]: 1 (8%) | AE: Hypertension [9]: 0 | AE: Hyperuricaemia [9]: 1 (8%) | AE: Insomnia [9]: 0 | AE: Muscle spasms [9]: 0 | AE: Nasopharyngitis [9]: 1 (8%) | AE: Nausea [9]: 2 (17%) | AE: Pruritus [9]: 2 (17%) | AE: Puncture site pain [9]: 0 | AE: Pyrexia [9]: 0 | AE: Spontaneous bacterial peritonitis [9]: 0 | AE: Viral infection [9]: 0 | AE: Vomiting [9]: 1 (8%) | Laboratory abnormality: Alanine aminotransferase increased [9]: 2 (17%) | Laboratory abnormality: Aspartate aminotransferase increased [9]: 3 (25%) | Laboratory abnormality: Blood creatine phosphokinase increased [9]: 0 | Laboratory abnormality: Blood creatinine increased [9]: 1 (8%) | Laboratory abnormality: C-reactive protein increased [9]: 0 | SAE: Anaemia [9]: 0 | SAE: Hepatic function abnormal [9]: 0 | SAE: Spontaneous bacterial peritonitis [9]: 0 | SAE: Viral infection [9]: 0 | AE: Anaemia [10]: 2 (17%) | AE: Ascites [10]: 0 | AE: Decreased appetite [10]: 0 | AE: Diarrhea [10]: 1 (8%) | AE: Dyspepsia [10]: 0 | AE: Erythema [10]: 0 | AE: Headache [10]: 0 | AE: Hepatic function abnormal [10]: 0 | AE: Hypertension [10]: 1 (8%) | AE: Hyperuricaemia [10]: 1 (8%) | AE: Insomnia [10]: 0 | AE: Muscle spasms [10]: 0 | AE: Nasopharyngitis [10]: 0 | AE: Nausea [10]: 0 | AE: Pruritus [10]: 0 | AE: Puncture site pain [10]: 0 | AE: Pyrexia [10]: 0 | AE: Spontaneous bacterial peritonitis [10]: 1 (8%) | AE: Viral infection [10]: 0 | AE: Vomiting [10]: 0 | Laboratory abnormality: Alanine aminotransferase increased [10]: 1 (8%) | Laboratory abnormality: Aspartate aminotransferase increased [10]: 0 | Laboratory abnormality: Blood creatine phosphokinase increased [10]: 0 | Laboratory abnormality: Blood creatinine increased [10]: 0 | Laboratory abnormality: C-reactive protein increased [10]: 0 | SAE: Anaemia [10]: 1 (8%) | SAE: Hepatic function abnormal [10]: 0 | SAE: Spontaneous bacterial peritonitis [10]: 1 (8%) | SAE: Viral infection [10]: 0 | AE liver dysfunction, patients (all patients, 4/27): 15% | AE vomiting, patients (all patients, 4/27): 15% | AE loss of appetite, patients (all patients, 6/27): 22% | AE nausea, patients (all patients, 6/27): 22% | AE diarrhoea, patients (all patients, 7/27): 26% | SAEs related to PRI-724 (observed in the 380 mg/m^2/4 h cohort (liver dysfunction: grade 3)): One of the four SAEs was possibly related to the PRI-724
